Results published in US6495683B2, “4-oxo-4,7-dihydro-thieno[2,3-b]pyridine-5-carboxamides as antiviral agents” (Pharmacia and Upjohn Company, priority 1999, dated 2002).

Assays:
[1] = biological target: T1, HCMV polymerase (Human cytomegalovirus, UniProt P08546); experiment: biochemical; conditions: modified SPA assay: compounds diluted in 100% DMSO, 4.5 mM DTT in polymerase buffer; read-out: polymerase IC50 (μM) HCMV
T1 construct: made in house; host or cells: recombinant baculovirus-infected SF-9 cells
Description: The HCMV polymerase assay is performed using a scintillation proximity assay (SPA) as described in several references, such as N. D. Cook, et al., Pharmaceutical Manufacturing International, pages 49-53 (1992); K. Takeuchi, Laboratory Practice, September issue (1992); U.S. Pat. No. 4,568,649 (1986); which are incorporated by reference herein. Reactions are performed in 96-well plates. The assay is conducted in 100 μl volume with 5.4 mM HEPE (pH 7.5), 11.7 mM KCl, 4.5 mM MgCl2, 0.36 mg/ml BSA, and 90 nM ^3H-dTTP. Assays are run with and without CHAPS, (3-[(3-cholamidopropyl)-dimethylammonio]-1-propane-sulfonate) at a final concentration of 2 mM. HCMV polymerase is diluted in enzyme dilution buffer containing 50% glycerol, 250 mM NaCl, 10 mM HEPES (pH 7.5), 100 μg/ml BSA, and 0.01% sodium azide. The HCMV polymerase, which is expressed in recombinant baculovirus-infected SF-9 cells and purified according to literature procedures, is added at 10% (or 10 μl) of the final reaction volume, i.e., 100 μl. Compounds are diluted in 50% DMSO and 10 μl are added to each well. Control wells contain an equivalent concentration of DMSO. Unless noted otherwise, reactions are initiated via the addition of 6 nM biotinylated poly(dA)-oligo(dT) template/primer to reaction mixtures containing the enzyme, substrate, and compounds of interest. Plates are incubated in a 25 C or 37 C H2O bath and terminated via the addition of 40 μl/reaction of 0.5 M EDTA (pH 8) per well. Reactions are terminated within the time-frame during which substrate incorporation is linear and varied depending upon the enzyme and conditions used, i.e., 30 min. for HCMV polymerase. Ten μl of streptavidin-SPA beads (20 mg/ml in PBS/10% glycerol) are added following termination of the reaction. Plates are incubated 10 min. at 37 ° C., then equilibrated to room temperature, and counted on a Packard Topcount. Linear regressions are performed and IC50's are calculated using computer software.
A modified version of the above HCMV polymerase assay is performed as described above, but with the following changes: Compounds are diluted in 100% DMSO until final dilution into assay buffer. In the previous assay, compounds are diluted in 50% DMSO. 4.5 mM dithiothreotol (DTT) is added to the polymerase buffer.

[2] = biological target: HSV polymerase (Human herpesvirus 1, UniProt P04293); experiment: biochemical; conditions: read-out: polymerase IC50 (μM) HSV
[3] = biological target: VZV polymerase (Varicella-zoster virus, UniProt P09252); experiment: biochemical; conditions: read-out: polymerase IC50 (μM) VZV
Chain of VZV polymerase (P09252 whole entry): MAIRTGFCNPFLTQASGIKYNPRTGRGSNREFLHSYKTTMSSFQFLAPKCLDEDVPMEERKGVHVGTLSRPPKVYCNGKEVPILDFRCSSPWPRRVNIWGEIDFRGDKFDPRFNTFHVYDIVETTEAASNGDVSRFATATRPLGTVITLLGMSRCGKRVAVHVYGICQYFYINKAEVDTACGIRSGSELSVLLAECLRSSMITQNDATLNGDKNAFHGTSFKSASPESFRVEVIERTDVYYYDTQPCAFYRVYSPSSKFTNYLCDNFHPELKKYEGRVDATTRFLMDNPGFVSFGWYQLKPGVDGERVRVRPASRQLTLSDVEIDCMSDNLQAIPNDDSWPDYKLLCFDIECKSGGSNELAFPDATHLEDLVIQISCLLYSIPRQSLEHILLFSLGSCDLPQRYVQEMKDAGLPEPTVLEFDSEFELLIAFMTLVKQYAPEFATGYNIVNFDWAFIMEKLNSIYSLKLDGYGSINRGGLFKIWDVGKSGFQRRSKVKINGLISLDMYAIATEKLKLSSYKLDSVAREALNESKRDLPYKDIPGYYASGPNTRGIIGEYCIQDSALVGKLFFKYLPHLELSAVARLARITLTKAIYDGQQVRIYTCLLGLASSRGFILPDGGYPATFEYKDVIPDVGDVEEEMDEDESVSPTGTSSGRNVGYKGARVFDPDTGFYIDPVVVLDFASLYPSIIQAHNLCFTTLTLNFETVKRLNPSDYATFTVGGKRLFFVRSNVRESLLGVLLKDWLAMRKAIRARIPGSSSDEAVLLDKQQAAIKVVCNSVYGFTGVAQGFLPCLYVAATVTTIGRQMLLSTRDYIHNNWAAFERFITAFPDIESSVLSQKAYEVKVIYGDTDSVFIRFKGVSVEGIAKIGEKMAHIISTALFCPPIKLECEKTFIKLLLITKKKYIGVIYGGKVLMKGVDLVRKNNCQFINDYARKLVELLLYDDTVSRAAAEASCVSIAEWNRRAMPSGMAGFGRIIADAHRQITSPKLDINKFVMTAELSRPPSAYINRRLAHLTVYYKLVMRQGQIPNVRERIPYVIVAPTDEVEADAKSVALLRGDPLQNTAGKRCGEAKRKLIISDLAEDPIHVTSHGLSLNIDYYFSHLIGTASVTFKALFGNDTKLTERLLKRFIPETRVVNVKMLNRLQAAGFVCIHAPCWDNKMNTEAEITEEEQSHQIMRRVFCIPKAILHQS

T1 sequence (P08546 whole entry): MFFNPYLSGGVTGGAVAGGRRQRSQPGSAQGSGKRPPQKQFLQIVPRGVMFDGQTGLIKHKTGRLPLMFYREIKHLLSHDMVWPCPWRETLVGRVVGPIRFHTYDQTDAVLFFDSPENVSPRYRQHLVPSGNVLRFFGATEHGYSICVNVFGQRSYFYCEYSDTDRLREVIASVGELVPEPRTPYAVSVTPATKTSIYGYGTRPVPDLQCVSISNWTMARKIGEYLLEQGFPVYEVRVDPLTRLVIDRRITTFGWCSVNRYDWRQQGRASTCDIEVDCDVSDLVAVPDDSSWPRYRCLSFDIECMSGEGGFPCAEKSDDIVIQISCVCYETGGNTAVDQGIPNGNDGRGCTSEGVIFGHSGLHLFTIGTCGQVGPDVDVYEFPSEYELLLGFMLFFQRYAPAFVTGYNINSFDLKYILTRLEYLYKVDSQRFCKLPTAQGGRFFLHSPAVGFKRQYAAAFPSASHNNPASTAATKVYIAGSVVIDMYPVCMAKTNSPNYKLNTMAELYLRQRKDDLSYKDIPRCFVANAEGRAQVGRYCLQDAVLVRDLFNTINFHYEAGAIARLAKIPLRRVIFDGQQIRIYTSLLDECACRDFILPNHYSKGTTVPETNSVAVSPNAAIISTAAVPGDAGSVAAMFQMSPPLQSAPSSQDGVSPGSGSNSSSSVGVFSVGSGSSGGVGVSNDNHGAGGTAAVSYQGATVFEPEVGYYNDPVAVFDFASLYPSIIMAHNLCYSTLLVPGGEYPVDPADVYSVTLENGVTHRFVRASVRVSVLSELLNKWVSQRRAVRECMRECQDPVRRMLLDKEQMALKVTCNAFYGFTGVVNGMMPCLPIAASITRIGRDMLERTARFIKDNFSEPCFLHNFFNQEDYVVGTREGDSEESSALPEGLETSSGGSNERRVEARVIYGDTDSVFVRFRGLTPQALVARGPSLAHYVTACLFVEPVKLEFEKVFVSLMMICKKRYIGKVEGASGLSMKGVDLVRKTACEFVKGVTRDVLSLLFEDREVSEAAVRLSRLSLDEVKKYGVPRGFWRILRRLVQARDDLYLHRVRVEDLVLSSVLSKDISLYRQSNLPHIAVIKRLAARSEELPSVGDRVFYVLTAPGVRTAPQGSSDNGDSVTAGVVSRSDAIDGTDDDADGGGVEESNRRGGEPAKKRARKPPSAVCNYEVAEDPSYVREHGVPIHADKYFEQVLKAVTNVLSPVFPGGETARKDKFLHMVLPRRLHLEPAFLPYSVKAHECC
Chain of HSV polymerase (P04293 whole entry): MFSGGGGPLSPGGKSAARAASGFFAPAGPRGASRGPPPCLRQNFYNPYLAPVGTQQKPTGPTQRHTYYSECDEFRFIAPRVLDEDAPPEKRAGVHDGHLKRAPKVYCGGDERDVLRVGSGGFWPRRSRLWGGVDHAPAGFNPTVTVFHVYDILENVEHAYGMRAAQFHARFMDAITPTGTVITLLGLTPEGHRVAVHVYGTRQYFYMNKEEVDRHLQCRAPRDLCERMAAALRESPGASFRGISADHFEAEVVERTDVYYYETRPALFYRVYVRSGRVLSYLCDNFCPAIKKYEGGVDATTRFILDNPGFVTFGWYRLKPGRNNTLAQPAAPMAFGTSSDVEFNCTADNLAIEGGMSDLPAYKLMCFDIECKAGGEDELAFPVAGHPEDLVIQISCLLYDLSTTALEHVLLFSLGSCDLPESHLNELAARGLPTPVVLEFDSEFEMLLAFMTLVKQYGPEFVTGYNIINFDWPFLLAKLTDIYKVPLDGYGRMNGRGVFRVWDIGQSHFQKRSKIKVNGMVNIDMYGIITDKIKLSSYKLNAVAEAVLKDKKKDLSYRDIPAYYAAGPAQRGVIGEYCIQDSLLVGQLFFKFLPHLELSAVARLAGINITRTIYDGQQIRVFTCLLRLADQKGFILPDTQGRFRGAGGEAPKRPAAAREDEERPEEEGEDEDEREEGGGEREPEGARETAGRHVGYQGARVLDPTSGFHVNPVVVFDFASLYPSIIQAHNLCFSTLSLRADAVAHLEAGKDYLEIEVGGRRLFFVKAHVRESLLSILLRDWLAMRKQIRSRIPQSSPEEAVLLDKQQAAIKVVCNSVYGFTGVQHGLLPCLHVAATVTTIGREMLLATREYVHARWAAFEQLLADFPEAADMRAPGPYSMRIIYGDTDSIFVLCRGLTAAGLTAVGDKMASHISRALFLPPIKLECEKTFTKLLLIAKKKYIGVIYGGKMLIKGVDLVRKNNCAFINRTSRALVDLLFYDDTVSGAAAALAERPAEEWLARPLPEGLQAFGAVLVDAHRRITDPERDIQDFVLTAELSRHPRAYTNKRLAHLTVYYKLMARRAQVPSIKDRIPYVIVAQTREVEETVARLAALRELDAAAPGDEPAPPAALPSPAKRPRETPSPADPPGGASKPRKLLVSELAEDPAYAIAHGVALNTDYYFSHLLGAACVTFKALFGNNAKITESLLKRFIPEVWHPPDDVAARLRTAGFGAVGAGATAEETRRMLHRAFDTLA

IC50 [1]	IC50 [2]	IC50 [3]	melting point	SMILES
2.5 µM	0.88 µM	0.6 µM	233 to 236 °C	O=C(NCc1ccc(Cl)cc1)c1cnc2sc(C#CCO)cc2c1O [Example 5, N-(4-Chlorobenzyl)-4-hydroxy-2-(3-hydroxy-1-propynyl)thieno[2,3-b]pyridine-5-carboxamide]
4.7 µM	3.2 µM	1.9 µM		CCn1cc(C(=O)NCc2ccc(Cl)cc2)c(=O)c2cc(C#CCCO)sc21 [Example 15, N-(4-Chlorobenzyl)-7-ethyl-2-(4-hydroxy-1-butynyl)-4-oxo-4,7-dihydrothieno[2,3-b]pyridine-5-carboxamide]
0.92 µM	0.89 µM	0.28 µM		O=C(NCc1ccc(Cl)cc1)c1cn(CCO)c2sc(C#CCO)cc2c1=O [Example 17, N-(4-Chlorobenzyl)-7-(2-hydroxyethyl)-2-(3-hydroxy-1-5 propynyl)-4-oxo-4,7-dihydrothieno[2,3-b]pyridine-5-carboxamide]
2.2 µM	0.91 µM	0.55 µM	185 to 186 °C	O=C(NCc1ccc(Cl)cc1)c1cnc2sc(CCCO)cc2c1O [Example 8, N-(4-Chlorobenzyl)4-hydroxy-2-(3-hydroxpropyl)thieno[2,3-b]pyridine-5-carboxamide]
